How the values were obtained:
interleukin 6 (IL-6) = assay: Anti-inflammatory effect: IL-6 release by keratinocytes stimulated by UV (ELISA, related to protein level); format: cell-based, human; details: positive control
Method: This test consists of evaluating the production of inflammatory mediators by human keratinocytes in response to irritant stress. The method is based on measuring the release rate of interleukin 6 (IL-6) by keratinocytes cultured in the presence of the ingredient and stimulated by UV light.
Five solutions are tested. Each is obtained by dilution in a culture medium and obtaining a final concentration of 1% ethanol. […] The second, third and fourth solutions differ in the concentration of the final residue (respectively 1.4 μg/mL, 3.5 μg/mL and 7.0 μg/mL). The fifth solution is dexamethasone (Dexa) (SIGMA Ref D1756) which is tested at 100 µM as a positive control.
On D0, 48 hours after seeding, the cells are rinsed with phosphate-buffered saline (PBS) and then exposed to UVB through the PBS. Immediately after irradiation, the PBS is replaced by the DMEM (Dulbecco's Modified Eagle Medium) test medium comprising the solution to be tested. The cells are returned to 37° C. and incubated for 24 hours.
On D1 (T 24 h), the incubation media are collected and the level of IL-6 is measured using the ELISA assay kit (IL-6 HIGH SENSITIVITY ELISA KIT, ENZO). At the same time, the corresponding cell layers are rinsed with Hank's Balanced Salt Solution (HBSS) and processed for cellular protein assay. A NaOH solution is added to each sample. After incubation, the cell extracts are collected and frozen at −20° C. to await assay with the BCA Protein Assay kit (PIERCE®).
The crude levels of IL-6 (pg per sample) are deduced by interpolation from the standard curve established with the IL-6 standard in the kit. The average of the IL-6 levels is calculated for each sample.
The protein level (μg per sample) is deduced by interpolation from the standard curve established with a bovine serum albumin standard in order to express the IL-6 level in relation to the average protein level. The average level is calculated for each sample.
The average IL-6 level is related to the average protein level. […]

PCi-SEB human sebocytes = assay: Anti-sebum effect: intracellular neutral lipids (Nile Red test) in sebocytes, lipogenesis induced by linoleic acid; format: cell-based; details: positive control
Method: The aim of this test is to study the anti-sebum effect of the ingredient according to the invention using an in vitro cell model. An extract is prepared according to Example 2.
The procedure is as follows. PCi-SEB human sebocytes derived from induced pluripotent stem (iPS) cells are prepared. The amplification and the maturation of PCi-SEB sebocytes is achieved by incubation in SEB medium for amplification for 2 days then in supplemented SEB medium for maturation for 3 days. The sebocytes are incubated for 24 hours in the presence of the ingredient according to the invention. Lipogenesis is induced by the addition of linoleic acid, then the sebocytes are incubated for 48 hours in the presence of the ingredient according to the invention.
In order to verify efficacy, the following biomarkers are measured: namely, intracellular neutral lipids (Nile Red test) and cellular proteins (Pierce BCA test).
The experimental plan is as follows: • 1 batch (Control): untreated cells incubated in SEB medium (n=3) • 1 batch (EtOH control): untreated cells incubated in SEB medium+EtOH (0.125%)] (n=3) • 3 batches (Test element-treated): cells incubated in medium (SEB+EtOH (0.125%)) and treated with 3 concentrations of test element (n=3) • 1 batch [PC]: cells incubated in SEB medium and treated with TOFA (20 μM)
The ingredient according to the invention was tested at 3 concentrations: C1=5 μg/mL, C2=15 μg/mL and C3=30 μg/mL
The level of neutral lipids was measured in control sebocyte cultures then treated by staining the cells with Nile Red. The values (fluorescence intensity) were reported at the average cellular protein level.
The [Nile-Red] values are expressed in arbitrary units (fluorescence intensity (urf) per mg of cellular protein).

SMILES | Induced IL-6 (interleukin 6 (IL-6); 100 μM, 24 h after UVB) | Induced IL-6 (%), with respect to IL-6 induced in the ethanol control (interleukin 6 (IL-6); 100 μM, 24 h after UVB) | inhibition of UV-induced IL-6 release (interleukin 6 (IL-6); same experimental conditions) | Neutral lipids - Nile Red, Mean, per mg of cellular protein (PCi-SEB human sebocytes; 20 μM) | Nile Red Test, Mean (fluorescence intensity) (PCi-SEB human sebocytes; 20 μM) | Lipogenic effect (%) (PCi-SEB human sebocytes; 20 μM, vs. EtOH control) | activity at 20 µM (PCi-SEB human sebocytes; Homo sapiens, read-out: Neutral lipids (% of controlEtOH))
C[C@@H]1C[C@H]2[C@@H]3CCC4=CC(=O)C=C[C@]4(C)[C@@]3(F)[C@@H](O)C[C@]2(C)[C@@]1(O)C(=O)CO [Dexa, dexamethasone] | 105.10 pg/mg prot. | 8% | 92% | – | – | – | –
CCCCCCCCCCCCCCOc1ccc(C(=O)O)o1 [TOFA, 5-(tetradecyloxy)-2-furoic acid] | – | – | – | 7.01 URF/mg prot. | 1679 | −75% | 25%
